Source: ChEMBL document CHEMBL4043231, “Discovery of highly potent, selective, covalent inhibitors of JAK3” (Bioorg Med Chem Lett, 2017)
Calls of active or inactive are those of the source. The calls are words filed in the database; no cut-off is given here.

Columns and labels:
[1] = target: T1, Tyrosine-protein kinase JAK2 (Homo sapiens, UniProt O60674); assay: Inhibition of GST-tagged JAK2 (unknown origin) using fluoresceinated peptide as substrate after 3 hrs by caliper assay
[2] = target: Non-receptor tyrosine-protein kinase TYK2 (Homo sapiens, UniProt P29597); assay: Inhibition of His-tagged TYK2 (unknown origin) using fluoresceinated peptide as substrate after 3 hrs by caliper assay
[3] = target: Tyrosine-protein kinase JAK1 (Homo sapiens, UniProt P23458); assay: Inhibition of GST-tagged JAK1 (unknown origin) using fluoresceinated peptide as substrate after 3 hrs by caliper assay
[4] = target: T2, Tyrosine-protein kinase JAK3 (Homo sapiens, UniProt P52333); assay: Inhibition of JAK3 (unknown origin) using CSKtide as substrate after 30 mins in presence of [gamma32P]ATP by top-count liquid scintillation counting method
T2 sequence (P52333 whole entry): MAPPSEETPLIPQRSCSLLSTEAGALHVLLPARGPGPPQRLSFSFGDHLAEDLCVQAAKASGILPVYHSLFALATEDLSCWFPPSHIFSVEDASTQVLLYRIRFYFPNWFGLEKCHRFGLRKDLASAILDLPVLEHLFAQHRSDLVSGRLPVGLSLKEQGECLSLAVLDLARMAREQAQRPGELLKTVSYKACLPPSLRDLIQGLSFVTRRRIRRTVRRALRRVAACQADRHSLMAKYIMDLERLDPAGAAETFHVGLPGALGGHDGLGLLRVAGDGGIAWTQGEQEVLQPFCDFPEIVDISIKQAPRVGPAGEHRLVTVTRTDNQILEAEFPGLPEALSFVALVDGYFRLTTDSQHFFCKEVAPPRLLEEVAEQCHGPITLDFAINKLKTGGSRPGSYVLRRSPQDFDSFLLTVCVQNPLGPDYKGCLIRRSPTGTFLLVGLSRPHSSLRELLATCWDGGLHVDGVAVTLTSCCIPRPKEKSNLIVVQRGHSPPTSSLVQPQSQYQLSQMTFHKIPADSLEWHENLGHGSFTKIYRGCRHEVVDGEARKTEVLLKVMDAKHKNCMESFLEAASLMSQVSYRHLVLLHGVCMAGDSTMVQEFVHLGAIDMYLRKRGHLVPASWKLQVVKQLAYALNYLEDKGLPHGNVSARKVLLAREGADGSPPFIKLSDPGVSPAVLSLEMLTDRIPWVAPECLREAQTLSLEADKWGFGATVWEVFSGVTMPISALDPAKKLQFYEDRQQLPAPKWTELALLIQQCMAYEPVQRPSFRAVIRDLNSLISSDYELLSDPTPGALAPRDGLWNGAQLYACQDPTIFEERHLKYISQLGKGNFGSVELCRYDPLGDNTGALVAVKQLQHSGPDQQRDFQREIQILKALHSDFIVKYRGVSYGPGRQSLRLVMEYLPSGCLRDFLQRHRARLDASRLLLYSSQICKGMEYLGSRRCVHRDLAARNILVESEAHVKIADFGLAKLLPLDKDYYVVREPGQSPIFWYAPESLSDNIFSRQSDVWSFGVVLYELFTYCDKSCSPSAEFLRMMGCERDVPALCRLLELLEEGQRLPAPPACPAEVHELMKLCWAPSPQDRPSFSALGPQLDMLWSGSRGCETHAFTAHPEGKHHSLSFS

T-cell = assay: Inhibition of IL-2 induced cell proliferation in human PBMC derived T cells pretreated for 60 mins followed by IL-2 addition measured after 3 days by [3H]thymidine incorporation assay; format: functional, cell-based
[5] = target: T3, Tyrosine-protein kinase JAK3 (Homo sapiens) (UniProt P52333); assay: Inhibition of JAK3 (unknown origin) using CSKtide as substrate pretreated measured after 30 mins in presence of [gamma32P]ATP by top-count liquid scintillation counting method
T3 sequence (whole entry): T2 sequence (P52333 whole entry)

Blood = assay: Inhibition of IL2-induced IFNgamma production in human whole blood; format: functional
JAK1/TYK2 = JAK1/TYK2 (Homo sapiens, UniProt P23458+P29597); assay: Inhibition of JAK1/TYK2 in human PBMC derived T cell assessed as reduction in IFNa2a-induced STAT3 phosphorylation after 30 mins by ELISA; format: protein-complex assay
JAK3/JAK1 = JAK3/JAK1 (Homo sapiens, UniProt P23458+P52333); assay: Inhibition of JAK1/JAK3 in human PBMC derived T cell assessed as reduction in IL2-induced STAT3 phosphorylation after 30 mins by ELISA; format: protein-complex assay
[6] = target: T4, Tyrosine-protein kinase BTK (Homo sapiens, UniProt Q06187); assay: Inhibition of full length human His-tagged BTK expressed in baculovirus expression system using GEEPLYWSFPAKKK-NH2 as substrate pretreated for 45 mins followed by ATP addition measured after 10 mins by topcount scintillation counting analysis
[7] = target: Macrophage colony-stimulating factor 1 receptor (Homo sapiens, UniProt P07333); assay: Inhibition of FMS (unknown origin) by caliper assay
[8] = target: Epidermal growth factor receptor (Homo sapiens, UniProt P00533); assay: Inhibition of EGFR (unknown origin) by caliper assay
[9] = target: T4, Tyrosine-protein kinase BTK; assay: Inhibition of full length human His-tagged BTK expressed in baculovirus expression system using GEEPLYWSFPAKKK-NH2 as substrate measured after 10 mins in presence of ATP by topcount scintillation counting analysis
[10] = target: T4, Tyrosine-protein kinase BTK; assay: Inhibition of full length human His-tagged BTK expressed in baculovirus expression system using GEEPLYWSFPAKKK-NH2 as substrate pretreated for 120 mins followed by ATP addition measured after 10 mins by topcount scintillation counting analysis
[11] = target: T4, Tyrosine-protein kinase BTK; assay: Inhibition of full length human His-tagged BTK expressed in baculovirus expression system using GEEPLYWSFPAKKK-NH2 as substrate pretreated for 15 mins followed by ATP addition measured after 10 mins by topcount scintillation counting analysis
[12] = target: T1, Tyrosine-protein kinase JAK2; assay: Inhibition of JAK2 in human TF1 cells assessed as reduction in EPO-induced STAT5A phosphorylation pretreated for 30 mins followed by EPO addition measured after 10 mins by ELISA; format: cell-based
[13] = Bioavailability in mouse; format: ADME, organism-based; details: in vivo
[14] = target: T4, Tyrosine-protein kinase BTK; assay: Inhibition of BTK in goat anti-human IgM F(ab')2-stimulated human whole blood assessed as suppression of BCR-induced CD69 expression on B cells after 18 hrs by FACS analysis
[15] = target: T4, Tyrosine-protein kinase BTK; assay: Time-dependent inhibition of full length human His-tagged BTK expressed in baculovirus expression system using GEEPLYWSFPAKKK-NH2 as substrate by topcount scintillation counting analysis
[16] = target: T4, Tyrosine-protein kinase BTK; assay: Inhibition of full length human His-tagged BTK expressed in baculovirus expression system using GEEPLYWSFPAKKK-NH2 as substrate measured immediately in presence of ATP by topcount scintillation counting analysis
[17] = target: T3, Tyrosine-protein kinase JAK3 (Homo sapiens)
Description: Time-dependent inhibition of JAK3 (unknown origin) using CSKtide as substrate in presence of [gamma32P]ATP by top-count liquid scintillation counting method

Sequence of Tyrosine-protein kinase JAK1 (P23458 whole entry): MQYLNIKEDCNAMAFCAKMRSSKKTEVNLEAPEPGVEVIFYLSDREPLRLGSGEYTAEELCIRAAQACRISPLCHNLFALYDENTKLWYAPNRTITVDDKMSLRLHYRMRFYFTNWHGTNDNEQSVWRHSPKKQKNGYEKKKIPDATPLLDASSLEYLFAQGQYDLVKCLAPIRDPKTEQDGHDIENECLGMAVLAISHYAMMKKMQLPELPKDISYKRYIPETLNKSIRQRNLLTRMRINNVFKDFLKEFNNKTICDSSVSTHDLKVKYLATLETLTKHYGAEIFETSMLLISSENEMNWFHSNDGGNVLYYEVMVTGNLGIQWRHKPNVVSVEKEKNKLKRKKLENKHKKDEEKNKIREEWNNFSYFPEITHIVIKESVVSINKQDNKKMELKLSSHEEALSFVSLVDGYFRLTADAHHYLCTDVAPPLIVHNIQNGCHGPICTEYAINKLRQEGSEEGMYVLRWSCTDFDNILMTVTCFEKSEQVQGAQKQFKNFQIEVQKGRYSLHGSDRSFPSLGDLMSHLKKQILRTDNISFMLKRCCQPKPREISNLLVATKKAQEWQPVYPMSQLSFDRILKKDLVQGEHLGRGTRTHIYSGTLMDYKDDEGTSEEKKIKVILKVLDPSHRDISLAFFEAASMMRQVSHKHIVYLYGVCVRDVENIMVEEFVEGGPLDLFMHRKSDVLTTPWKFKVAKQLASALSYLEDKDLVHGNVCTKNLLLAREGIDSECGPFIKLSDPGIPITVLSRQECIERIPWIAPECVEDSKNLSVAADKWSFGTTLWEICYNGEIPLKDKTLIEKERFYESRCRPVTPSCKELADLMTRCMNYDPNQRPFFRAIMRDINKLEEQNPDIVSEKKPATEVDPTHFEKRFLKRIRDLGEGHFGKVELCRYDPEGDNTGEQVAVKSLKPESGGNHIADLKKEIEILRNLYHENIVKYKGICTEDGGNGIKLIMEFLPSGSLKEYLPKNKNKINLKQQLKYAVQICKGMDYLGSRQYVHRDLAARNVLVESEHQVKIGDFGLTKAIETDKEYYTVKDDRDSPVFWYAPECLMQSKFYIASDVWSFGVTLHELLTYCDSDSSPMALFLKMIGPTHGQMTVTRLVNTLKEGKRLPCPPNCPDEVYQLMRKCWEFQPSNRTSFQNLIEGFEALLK
T4 sequence (Q06187 whole entry): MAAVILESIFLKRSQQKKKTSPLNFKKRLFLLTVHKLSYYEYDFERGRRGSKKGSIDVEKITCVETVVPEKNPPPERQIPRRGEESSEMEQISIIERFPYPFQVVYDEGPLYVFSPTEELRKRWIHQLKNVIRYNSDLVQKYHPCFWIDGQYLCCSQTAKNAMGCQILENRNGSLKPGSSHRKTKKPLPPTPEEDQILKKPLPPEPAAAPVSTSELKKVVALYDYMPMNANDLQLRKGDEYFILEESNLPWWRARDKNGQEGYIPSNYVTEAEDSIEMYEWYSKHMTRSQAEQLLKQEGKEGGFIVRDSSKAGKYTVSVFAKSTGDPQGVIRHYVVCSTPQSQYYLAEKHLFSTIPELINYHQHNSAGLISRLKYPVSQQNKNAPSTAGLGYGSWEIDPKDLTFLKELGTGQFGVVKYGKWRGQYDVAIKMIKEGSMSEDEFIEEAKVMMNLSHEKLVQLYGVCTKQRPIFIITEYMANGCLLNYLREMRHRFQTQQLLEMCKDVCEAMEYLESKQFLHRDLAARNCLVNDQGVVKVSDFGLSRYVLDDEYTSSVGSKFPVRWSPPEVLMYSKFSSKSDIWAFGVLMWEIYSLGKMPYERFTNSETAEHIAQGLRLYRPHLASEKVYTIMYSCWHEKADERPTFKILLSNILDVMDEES
T1 sequence (O60674 whole entry): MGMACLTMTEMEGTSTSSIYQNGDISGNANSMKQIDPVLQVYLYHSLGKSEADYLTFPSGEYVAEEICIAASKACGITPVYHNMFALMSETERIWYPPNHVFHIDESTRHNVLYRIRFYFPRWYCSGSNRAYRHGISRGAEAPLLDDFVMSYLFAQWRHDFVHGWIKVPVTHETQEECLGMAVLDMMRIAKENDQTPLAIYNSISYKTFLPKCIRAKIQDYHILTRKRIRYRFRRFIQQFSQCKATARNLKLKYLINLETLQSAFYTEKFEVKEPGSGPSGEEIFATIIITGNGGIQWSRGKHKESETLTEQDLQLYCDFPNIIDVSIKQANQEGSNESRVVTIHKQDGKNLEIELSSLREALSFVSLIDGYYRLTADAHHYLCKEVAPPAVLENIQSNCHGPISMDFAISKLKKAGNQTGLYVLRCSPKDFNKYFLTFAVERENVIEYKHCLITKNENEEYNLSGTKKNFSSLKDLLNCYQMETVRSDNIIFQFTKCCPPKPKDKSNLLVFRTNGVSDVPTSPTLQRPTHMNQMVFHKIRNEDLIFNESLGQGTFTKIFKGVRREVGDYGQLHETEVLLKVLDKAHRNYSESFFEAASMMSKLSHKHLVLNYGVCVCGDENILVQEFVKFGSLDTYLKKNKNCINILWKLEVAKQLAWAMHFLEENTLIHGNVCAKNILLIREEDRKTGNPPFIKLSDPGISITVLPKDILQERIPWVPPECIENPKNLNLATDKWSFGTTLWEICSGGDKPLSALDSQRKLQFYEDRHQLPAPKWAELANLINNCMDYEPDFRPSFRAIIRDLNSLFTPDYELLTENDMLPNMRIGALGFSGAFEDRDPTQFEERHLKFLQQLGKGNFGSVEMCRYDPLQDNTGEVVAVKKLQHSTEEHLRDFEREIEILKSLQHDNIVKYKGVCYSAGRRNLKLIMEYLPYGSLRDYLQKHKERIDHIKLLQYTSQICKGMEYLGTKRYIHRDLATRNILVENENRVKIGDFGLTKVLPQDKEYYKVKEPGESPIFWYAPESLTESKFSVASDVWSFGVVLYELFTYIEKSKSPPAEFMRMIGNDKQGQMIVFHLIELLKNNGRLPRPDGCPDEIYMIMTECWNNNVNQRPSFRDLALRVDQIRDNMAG
Sequence of Non-receptor tyrosine-protein kinase TYK2 (P29597 whole entry): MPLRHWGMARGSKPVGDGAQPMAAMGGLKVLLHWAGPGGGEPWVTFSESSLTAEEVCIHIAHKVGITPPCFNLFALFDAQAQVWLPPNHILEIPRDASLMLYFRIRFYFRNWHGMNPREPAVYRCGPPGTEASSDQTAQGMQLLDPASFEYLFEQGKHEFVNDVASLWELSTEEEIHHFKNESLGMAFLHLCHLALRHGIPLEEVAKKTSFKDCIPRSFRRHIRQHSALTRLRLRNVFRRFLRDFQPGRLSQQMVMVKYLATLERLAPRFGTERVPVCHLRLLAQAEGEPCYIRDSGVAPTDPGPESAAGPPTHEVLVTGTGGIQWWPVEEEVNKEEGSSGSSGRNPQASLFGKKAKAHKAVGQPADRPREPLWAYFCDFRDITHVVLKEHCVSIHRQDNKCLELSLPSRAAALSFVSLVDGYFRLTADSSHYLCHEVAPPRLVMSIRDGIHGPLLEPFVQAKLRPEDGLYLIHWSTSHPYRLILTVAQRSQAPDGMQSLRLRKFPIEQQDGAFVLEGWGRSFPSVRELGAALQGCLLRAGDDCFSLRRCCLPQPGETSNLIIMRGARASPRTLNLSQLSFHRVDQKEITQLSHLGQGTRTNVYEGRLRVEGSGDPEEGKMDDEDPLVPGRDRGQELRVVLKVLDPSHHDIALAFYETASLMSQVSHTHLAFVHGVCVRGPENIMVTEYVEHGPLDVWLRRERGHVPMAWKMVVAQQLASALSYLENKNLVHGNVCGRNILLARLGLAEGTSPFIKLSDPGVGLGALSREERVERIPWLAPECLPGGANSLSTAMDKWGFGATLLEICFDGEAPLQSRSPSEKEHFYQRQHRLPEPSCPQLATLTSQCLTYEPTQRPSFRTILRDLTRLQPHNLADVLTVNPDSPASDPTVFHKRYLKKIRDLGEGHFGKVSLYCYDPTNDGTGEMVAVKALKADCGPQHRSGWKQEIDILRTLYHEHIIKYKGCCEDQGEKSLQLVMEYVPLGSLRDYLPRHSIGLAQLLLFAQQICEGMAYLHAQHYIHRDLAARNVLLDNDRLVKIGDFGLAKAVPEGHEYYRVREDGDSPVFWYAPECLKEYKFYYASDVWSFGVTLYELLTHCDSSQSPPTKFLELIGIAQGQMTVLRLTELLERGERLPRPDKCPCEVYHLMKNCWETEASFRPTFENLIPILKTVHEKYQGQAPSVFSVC
Sequence of Macrophage colony-stimulating factor 1 receptor (P07333 whole entry): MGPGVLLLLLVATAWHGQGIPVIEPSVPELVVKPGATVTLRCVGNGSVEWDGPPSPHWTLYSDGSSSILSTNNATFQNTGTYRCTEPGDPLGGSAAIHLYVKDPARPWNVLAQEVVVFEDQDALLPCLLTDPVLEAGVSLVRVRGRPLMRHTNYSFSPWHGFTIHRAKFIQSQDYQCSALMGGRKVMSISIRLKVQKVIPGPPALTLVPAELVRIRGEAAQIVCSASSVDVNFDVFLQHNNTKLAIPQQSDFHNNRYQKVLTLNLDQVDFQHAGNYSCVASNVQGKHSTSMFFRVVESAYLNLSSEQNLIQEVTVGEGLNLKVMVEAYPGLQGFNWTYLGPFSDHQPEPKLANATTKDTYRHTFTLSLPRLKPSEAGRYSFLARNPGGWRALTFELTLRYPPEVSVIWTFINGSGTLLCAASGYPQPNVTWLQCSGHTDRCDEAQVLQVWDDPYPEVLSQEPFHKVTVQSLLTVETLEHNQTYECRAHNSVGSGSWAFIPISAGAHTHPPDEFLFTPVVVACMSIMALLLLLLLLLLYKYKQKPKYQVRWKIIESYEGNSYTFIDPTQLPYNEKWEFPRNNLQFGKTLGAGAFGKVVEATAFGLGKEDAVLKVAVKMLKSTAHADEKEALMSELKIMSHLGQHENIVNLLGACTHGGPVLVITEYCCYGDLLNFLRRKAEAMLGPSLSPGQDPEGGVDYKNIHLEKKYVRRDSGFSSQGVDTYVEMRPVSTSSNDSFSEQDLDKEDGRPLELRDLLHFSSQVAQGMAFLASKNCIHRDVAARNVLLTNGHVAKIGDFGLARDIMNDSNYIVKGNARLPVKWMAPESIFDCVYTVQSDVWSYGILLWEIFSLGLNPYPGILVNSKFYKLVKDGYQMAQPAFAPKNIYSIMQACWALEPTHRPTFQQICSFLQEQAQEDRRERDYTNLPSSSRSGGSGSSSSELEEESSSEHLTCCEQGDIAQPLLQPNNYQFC

| Compound | IC50 [1] | IC50 [2] | IC50 [3] | IC50 [4] | IC50 (T-cell) | further results |
| --- | --- | --- | --- | --- | --- | --- |
| NC(=O)c1cnn2cccc2c1NCc1cccc(NC(=O)Cn2sc3ccccc3c2=O)c1 | 745 nM | 240 nM | 196 nM | 30 nM | 5.48 µM | – |
| NC(=O)c1cnn2cc(-c3ccccc3)cc2c1NCc1ccccc1 | 438 nM | 118 nM | 214 nM | 14 nM | – | – |
| NC(=O)c1cnc(Nc2ccccc2)cc1NCc1ccccc1 | 203 nM | 774 nM | 219 nM | – | – | – |
| CCC(=O)Nc1cccc(CNc2cc(Nc3ccccc3)ncc2C(N)=O)c1 | – | – | – | 100 nM | – | inhibition [5]: Active |
| C=CC(=O)Nc1cccc(CNc2c(C(N)=O)cnn3cccc23)c1 | > 2000 nM | > 2000 nM | 1700 nM | 1.3 nM | 0.055 µM | IC50 (Blood): 2300 nM |
| C=CC(=O)Nc1cccc(CNc2cc(Nc3ccccc3)ncc2C(N)=O)c1 | 1300 nM | > 5000 nM | 1100 nM | < 1 nM | 0.022 µM | IC50 (JAK1/TYK2): 4.9 µM; IC50 (JAK3/JAK1): 51 nM; EC50 [6]: 2890 nM; IC50 [7]: 180 nM; IC50 [8]: > 10 µM; IC50 [9]: > 2500 nM; EC50 [10]: 1580 nM; IC50 (Blood): 490 nM; EC50 [11]: 6.56 µM; IC50 [12]: 11 µM; bioavailability [13]: < 30%; IC50 [14]: > 10 µM; TDI [15]: Active; EC50 [16]: 19.8 µM; TDI [17]: Active |
| C/C=C/C(=O)Nc1cccc(CNc2c(C(N)=O)cnn3cccc23)c1 | > 2000 nM | > 2000 nM | 1420 nM | 175 nM | 26.6 µM | – |
| C=CS(=O)(=O)Nc1cccc(CNc2c(C(N)=O)cnn3cccc23)c1 | 1270 nM | > 2000 nM | 974 nM | 3.5 nM | 6.7 µM | – |
| NC(=O)c1cnn2cccc2c1NCc1cccc(NC(=O)COc2c(F)c(F)c(F)c(F)c2F)c1 | > 2000 nM | > 2000 nM | > 2000 nM | 743 nM | 15.4 µM | – |
| N#CCC(=O)Nc1cccc(CNc2c(C(N)=O)cnn3cccc23)c1 | 658 nM | 2000 nM | 264 nM | 35 nM | 8.45 µM | – |
| CN(C)/C=C(/C#N)C(=O)Nc1cccc(CNc2c(C(N)=O)cnn3cccc23)c1 | > 2000 nM | > 2000 nM | > 2000 nM | 942 nM | 14.4 µM | – |
